Where a name gives a salt, the structure may show the parent alone.
Legend:
[1] = Formulation flow properties; format: physicochemical
[2] = Excipient compatibility: potency and purity of binary volixibat:excipient formulations on storage (HPLC); format: physicochemical
Method: Binary formulations of volixibat potassium were prepared at either 1:1 or 10:1 ratio with the excipients outlined in Table 1.1. Powder grade excipients were utilized to maximize surface area interactions between excipient and drug substance.
Each formulation was prepared at 300 mg total sample size. Volixibat and each excipient was weighed into glass vials and mixed via vortex. A single vial of each formulation was stored loosely capped at two storage conditions: ambient/60% RH and 40° C./75% RH. Humidity control was obtained by using a saturated salt solution in a sealed container. […] A standard solution of volixibat DS prepared at nominal concentration in the analytical diluent served as the T=0 data point. The neat, loose drug substance powder was stored in the same vial configuration to serve as a control at each storage condition.
At the specified time points, approximately 50 mg of each formulation was sampled and diluted with analytical diluent in either 50 mL (for 1:1 formulations) or 100 mL (for […] and neat DS) to target nominal analytical concentration of 0.5 mg/mL volixibat. HPLC analysis was used based on the parameters described above under HPLC Parameters (Gradient Elution).

physchem = details: 25 °C, water

| SMILES | Bulk Density [1] [g/mL] | Hausner Ratio [1] | Tapped Density [1] [g/mL] | Potency, % LC Volixibat ([2]; stored at 40° C./75% RH, T = 2-weeks) [% LC] | Potency, % LC Volixibat ([2]; stored at 40° C./75% RH, T = 4 weeks) [% LC] | Potency, % LC Volixibat ([2]; stored at 40° C./75% RH, T = 8 weeks) [% LC] | Potency, % LC Volixibat ([2]; stored at RT/60% RH, T = 2-weeks) [% LC] | Potency, % LC Volixibat ([2]; stored at RT/60% RH, T = 4 weeks) [% LC] | Potency, % LC Volixibat ([2]; stored at RT/60% RH, T = 9 weeks) [% LC] | solubility (physchem) [mg/mL] |
| --- | --- | --- | --- | --- | --- | --- | --- | --- | --- | --- |
| CCCC[C@]1(CC)CS(=O)(=O)c2ccc(N(C)C)cc2[C@@H](c2cccc(NC(=O)N[C@@H]3O[C@H](COS(=O)(=O)[O-])[C@@H](O)[C@H](OCc4ccccc4)[C@H]3O)c2)[C@H]1O.[K+] [Volixibat DS] | 0.54 | 1.27 | 0.69 | 93.2 | 105.1 | 98.3 | 100.9 | 107.7 | 97.1 | – |
| CCCC[C@]1(CC)CS(=O)(=O)c2ccc(N(C)C)cc2[C@@H](c2cccc(NC(=O)N[C@@H]3O[C@H](COS(=O)(=O)O)[C@@H](O)[C@H](OCc4ccccc4)[C@H]3O)c2)[C@H]1O [volixibat, ((2R,3R,4S,5R,6R)-4-benzyloxy-6-{3-[3-((3S,4R,5R)-3-butyl-7-dimethylamino-3-ethyl-4-hydroxy-1,1-dioxo-2,3,4,5-tetrahydro-1H-benzo[b]thiepin-5-yl)-phenyl]-ureido}-3,5-dihydroxy-tetrahydro-pyran-2-ylmethyl) hydrogen sulfate)] | – | – | – | – | – | – | – | – | – | > 200 |
